Experimental data as given in patent publication US5530018A, “Meso-azanoradamantanes” (G. D. Searle & Co., priority 1994, dated 1996).
Entries after “also recorded” stand apart in the source; their conditions may differ. Structures can show the parent of a compound that is named as a salt. Blank lines part the entries; values can stand above or below the compound they belong to.

What was measured:
GI transit [1] = conditions: cited from earlier work
gastric emptying = conditions: in vivo; cited from earlier work
5-HT4 receptor [2] = biological target: T1, 5-HT4 receptor (Rattus norvegicus, UniProt Q62758); assay: cell-based; conditions: carbachol (3 μM)-contracted rat TMM, 37° C., tissues from 5 rats; read-out: 5-HT4 Agonism (Rat TMM) In Vitro Assay: EC50 values
T1 construct: One 2 cm segment of intrathoracic esophagus proximal to the diaphragm was removed from male rats; from tissue; host or cells: rat intrathoracic oesophagus, inner tunica muscularis mucosae
T1 sequence (Q62758 whole entry): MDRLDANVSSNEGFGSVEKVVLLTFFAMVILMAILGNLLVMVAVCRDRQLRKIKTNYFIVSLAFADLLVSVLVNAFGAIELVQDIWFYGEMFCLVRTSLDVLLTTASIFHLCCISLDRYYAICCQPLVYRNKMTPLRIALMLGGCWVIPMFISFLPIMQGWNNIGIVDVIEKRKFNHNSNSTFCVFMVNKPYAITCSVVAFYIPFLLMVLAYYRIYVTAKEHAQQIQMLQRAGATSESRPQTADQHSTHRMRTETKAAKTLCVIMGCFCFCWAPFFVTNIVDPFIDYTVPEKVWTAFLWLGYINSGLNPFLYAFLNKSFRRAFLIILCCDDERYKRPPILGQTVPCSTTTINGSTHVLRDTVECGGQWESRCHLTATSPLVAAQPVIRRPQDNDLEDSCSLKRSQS
Method: (§1) 5-HT4 agonist activity was determined in the in vitro rat tunica muscularis mucosae (TMM) assay described herein. (Baxter et al., Naunyn Schmied Arch. Pharmacol, 1991, 343, 439). […] One with skill in the art could determine the activity of the compounds of the present invention using the methodology of these assays, described herein, without undue experimentation.
Schmied. Arch. Pharmacol. 343, 439 (1991)]. Agonist activity was determined utilizing relaxation of carbachol-contracted rat tunica muscularis mucosae (TMM). One 2 cm segment of intrathoracic esophagus proximal to the diaphragm was removed from male rats, weighing approximately 300 gm, and the outer muscle layers removed. The inner tunica muscularis mucosa was mounted under 0.2-0.3 g of tension in a tissue bath containing oxygenated Tyrode's solution at 37° C. […] Following a 30 minute equilibrium period, tissues were isometrically contracted with carbachol (3 μM) to obtain a tonic contraction. A stable plateau was obtained within 20 minutes when test compound was added cumulatively to relax the muscle strip. EC50 values were obtained for each agonist in tissues from 5 rats.

5-HT4 receptors = conditions: cited from earlier work
[3] = tested on: guinea pig stomach strips; conditions: in vitro; cited from earlier work
5-HT3 receptor = biological target: T2, 5-HT3 receptor (Rattus norvegicus, UniProt P35563); assay: 5-HT3 radioligand receptor binding, [3H]-GR65630, rat brain cortex membranes
T2 construct: Brain cortices were obtained from male rats and a membrane fraction prepared by standard techniques; from tissue; host or cells: rat brain cortex membranes
T2 sequence (P35563 24-483): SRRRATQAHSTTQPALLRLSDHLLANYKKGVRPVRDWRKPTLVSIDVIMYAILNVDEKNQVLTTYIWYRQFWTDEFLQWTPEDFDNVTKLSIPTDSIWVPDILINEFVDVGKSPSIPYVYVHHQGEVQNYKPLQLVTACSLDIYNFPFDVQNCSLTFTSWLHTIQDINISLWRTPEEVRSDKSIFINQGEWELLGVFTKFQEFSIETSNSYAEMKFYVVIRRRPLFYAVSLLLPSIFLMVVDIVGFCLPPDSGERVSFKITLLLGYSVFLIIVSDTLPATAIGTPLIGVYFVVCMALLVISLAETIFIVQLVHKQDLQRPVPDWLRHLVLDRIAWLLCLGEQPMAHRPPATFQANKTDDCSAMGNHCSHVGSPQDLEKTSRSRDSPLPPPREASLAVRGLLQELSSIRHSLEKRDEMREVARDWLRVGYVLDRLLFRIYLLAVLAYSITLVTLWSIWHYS
Method: as §1
Procedure: GR65630 binds to the 5-HT3 receptor. Brain cortices were obtained from male rats and a membrane fraction prepared by standard techniques. 0.04 mg of membrane prep was incubated with 0.2 nM [^3 H]-GR65630 for 66 minutes at 22° C. […] Membranes were filtered and washed 3 times and the filters were counted to determine [^3 H]-GR65630 specifically bound. [Kilpatrick GJ, Jones BJ and Tyers MB, Identification and Distribution of 5-HT3 Receptors in Rat Brain Using Radioligand Binding Assay, Nature 330, 746-748 (1987)].

5-HT3 = conditions: in vivo; cited from earlier work
GI transit [4] = conditions: mice; cited from earlier work
antroduodenal motility = conditions: dogs, cited from earlier work
myenteric neurons = conditions: cited from earlier work
5-HT4 receptor [5] = conditions: mouse embryonic colliculi neurons; cited from earlier work

Structure (SMILES): Cc1nccn1CC1CCc2c(c3ccccc3n2C)C1=O (stereo not shown) [GR38032]
- GI transit / colonic transit (GI transit [1]; man (S. Gore et al.)): not only failed to accelerate GI transit, but in fact slowed colonic transit in man
- small intestinal transit times or mouth-to-cecum transit times (GI transit [1]; man (Talley et al.)): did not alter small intestinal transit times or mouth-to-cecumtransit times
- gastric emptying (gastric emptying): enhanced gastric emptying

Structure (SMILES): COc1cc(N)c(Cl)cc1C(=O)N[C@H]1[C@@H]2C[C@@H]3C[C@H]1CN3C2 [Example 3, Syn-4-amino-5-chloro-N-(hexahydro,2,6-methano-1H-pyrrolizin-8-yl)-2-methoxybenzamide]
- EC50 (5-HT4 receptor [2]): 2230 nM

Structure (SMILES): NCCc1c[nH]c2ccc(O)cc12 [Serotonin, 5-hydroxytryptamine]
- peristaltic reflex mediated through 5-HT4 receptors (5-HT4 receptors): mediated through agonism at 5-HT4 receptors

Structure (SMILES): CN1[C@@H]2CC[C@H]1C[C@@H](OC(=O)c1cc(Cl)cc(Cl)c1)C2 [MDL 72222]
- guinea pig stomach strip contraction [3]: enhanced guinea pig stomach muscle strip contraction in vitro
- gastric emptying (gastric emptying): increases in gastric emptying rates in vivo

- EC50 (5-HT4 receptor [2]): > 10000 nM
Structure (SMILES): COc1cc(NC(C)=O)c(Cl)cc1C(=O)N[C@@H]1[C@@H]2C[C@@H]3C[C@H]1CN3C2 [Example 2, Anti-4-(acetylamino)-5-chloro-N-(hexahydro-2,6-methano-1H-pyrrolizin-8-yl)-2-methoxybenzamide]

- EC50 (5-HT4 receptor [2]): 660 nM
Structure (SMILES): COc1cc(N)c(Cl)cc1C(=O)NC[C@@H]1[C@@H]2C[C@@H]3C[C@H]1CN3C2 [Example 11, Anti-4-amino-5-chloro-N-(hexahydro-2,6-methano-1H-pyrrolizin-8-ylmethyl)-2-methoxybenzamide, monohydrochloride]

Structure (SMILES): COc1cc(N)c(Cl)cc1C(=O)N[C@@H]1[C@@H]2C[C@@H]3C[C@H]1CN3C2 [Example 5, Anti-4-amino-5-chloro-N-(hexahydro-2,6-methano-1H-pyrrolizin-8-yl)-2-methoxybenzamide]
- EC50 (5-HT4 receptor [2]): 705 nM

Structure (SMILES): COc1cc(N)c(Cl)cc1C(=O)N[C@H]1[C@@H]2C[C@@H]3C[C@H]1CN3C2 [Example 4, Syn-4-amino-5-chloro-N-(hexahydro-2,6-methano-1H-pyrrolizin-8-yl)-2-methoxybenzamide, hydrochloride]
- EC50 (5-HT4 receptor [2]): 712 nM
- Ki (5-HT3 receptor): 22 nM

Structure (SMILES): COc1cc(N)c(Cl)cc1C(=O)N[C@@H]1[C@@H]2C[C@@H]3C[C@H]1CN3C2 [Example 6, Anti-4-amino-5-chloro-N-(hexahydro-2,6-methano-1H pyrrolizin-8-yl)-2-methoxybenzamide, monohydrochloride]
- EC50 (5-HT4 receptor [2]): 382 nM
- Ki (5-HT3 receptor): 3.8 nM

Structure (SMILES): COc1cc(N)c(Cl)cc1C(=O)NC1CN2CCC1CC2 (stereo not shown) [zacopride]
- gastric emptying (gastric emptying): enhanced gastric emptying

Structure (SMILES): CCN(CC)CCNC(=O)c1cc(Cl)c(N)cc1OC [metoclopramide]
- 5-HT3 mediated Bezold Jarisch reflex (5-HT3): blocks the 5-HT3 mediated Bezold Jarisch reflex
- guinea pig stomach strip contraction [3]: enhanced electrical-field stimulated contractions in guinea pig stomach strips; also recorded: enhanced guinea pig stomach muscle strip contraction in vitro
- gastric emptying (gastric emptying): increases in gastric emptying rates in vivo

- EC50 (5-HT4 receptor [2]): 216 nM
Structure (SMILES): COc1cc(N)c(Cl)cc1C(=O)OC1C2CC3CC1CN3C2 (stereo not shown) [Example 13, (Hexahydro-2,6-methano-1H-pyrrolizin-8-yl) 4-amino-5-chloro-2-methoxybenzoate]

Structure (SMILES): Cc1nc[nH]c1CCC(=O)c1cn(C)c2ccccc12 [GR65630]
- Bmax (5-HT3 receptor; [3H]-GR65630, rat brain cortex membranes): 154 fmol/mg protein
- % Specific Binding (5-HT3 receptor; [3H]-GR65630, non-specific binding in presence of 1 uM ICS 205,930): 70%

Structure (SMILES): Cc1nccn1CC1CCc2c(c3ccccc3n2C)C1=O.Cl.O.O (stereo not shown) [SN-307]
- transit of a charcoal meal (GI transit [4]): enhanced transit of a charcoal meal in mice

Structure (SMILES): COc1cc(N)c(Cl)cc1C(=O)NC1CCN(CCCOc2ccc(F)cc2)CC1OC (stereo not shown) [Cisapride]
- antroduodenal motility (antroduodenal motility): enhanced antroduodenal motility in dogs
- EC50 (5-HT4 receptor [2]): 55 nM
- depolarization of myenteric neurons (myenteric neurons): depolarize myenteric neurons
- prokinetic activity correlated with agonist activity at 5-HT4 receptor (5-HT4 receptor [5]): correlate with agonist activity at a novel 5-HT4 receptor subtype

Structure (SMILES): CN1[C@@H]2CC[C@H]1C[C@@H](OC(=O)c1c[nH]c3ccccc13)C2 [ICS 205,930]
- effect on responses to cisapride (antroduodenal motility; coadministered with cisapride): did not affect the responses to cisapride when the agents were coadministered
- guinea pig stomach strip contraction [3]: enhanced guinea pig stomach muscle strip contraction in vitro
- gastric emptying (gastric emptying): increases in gastric emptying rates in vivo; also recorded: enhanced gastric emptying

- EC50 (5-HT4 receptor [2]): 3340 nM
Structure (SMILES): COc1cc(NC(C)=O)c(Cl)cc1C(=O)N[C@H]1[C@@H]2C[C@@H]3C[C@H]1CN3C2 [Example 1, Syn-4,(acetylamino)-5-chloro-N-(hexahydro-2,6-methano-1H-pyrrolizin8-yl)-2-methoxybenzamide]

Structure (SMILES): COc1cc(N)c(Cl)cc1C(=O)NC[C@H]1[C@@H]2C[C@@H]3C[C@H]1CN3C2 [Example 14, Syn-4-amino-5-chloro-N-(hexahydro-2,6-methano-1H-pyrrolizin-8-ylmethyl)-2-methoxybenzamide, monohydrochloride]
- EC50 (5-HT4 receptor [2]): 421 nM
- Ki (5-HT3 receptor): 1.1 nM

Structure (SMILES): COc1cc(N)c(Cl)cc1C(=O)NC1CCN2CCCC1C2 (stereo not shown) [BRL-24924]
- depolarization of myenteric neurons (myenteric neurons): depolarize myenteric neurons
- prokinetic activity correlated with agonist activity at 5-HT4 receptor (5-HT4 receptor [5]): correlate with agonist activity at a novel 5-HT4 receptor subtype
- peristaltic reflex mediated through 5-HT4 receptors (5-HT4 receptors): mediated through agonism at 5-HT4 receptors

- EC50 (5-HT4 receptor [2]): ≥ 10000 nM
Structure (SMILES): COc1cc(NC(C)=O)c(Cl)cc1C(=O)NCC1C2CC3CC1CN3C2 (stereo not shown) [Example 7, 4-(Acetylamino)-5-chloro-N-(hexahydro-2,6-methano-1H-pyrrolizin-8-ylmethyl)-2-methoxybenzamide, hydrochloride]

- EC50 (5-HT4 receptor [2]): 397 nM
Structure (SMILES): COc1cc(N)c(Cl)cc1C(=O)NCC1C2CC3CC1CN3C2 (stereo not shown) [Example 9, 4-Amino-5-chloro-N-(hexahydro,2,6-methano-1H-pyrrolizin-8-ylmethyl)-2-methoxybenzamide, monobydrochloride]
